For 67 compounds, Ki results are on record in US7034056B2, “Aryl and biaryl compounds having MCH modulatory activity” (Pharmacopeia Drug Discovery, inc., priority 2001, dated 2006).

For the assay, the target named is T1, hMCHR (MCH receptor) (Homo sapiens, UniProt Q99705).
T1 construct: (or internally produced); host or cells: CHO (Chinese hamster ovary) cells, membrane preparation
In words: MCH Assay PCOP Protocol ([125I]-MCH SPA binding to hMCHR-CHO membranes).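 Note: A 0.4–50 nM B 51–500 nM C 501–2500 nM.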 Conditions: [125I]-MCH binding to hMCHR-CHO membranes; class symbols for ranges of Ki; read-out: Activity (Ki range). Summed up:
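SPA binding with 10 μg hMCHR-CHO membranes and WGA-SPA beads in 25 mM HEPES pH 7.4, 10 mM NaCl, 10 mM MgCl2, 5 mM MnCl2, 0.1% BSA.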

T1 sequence (Q99705 whole entry): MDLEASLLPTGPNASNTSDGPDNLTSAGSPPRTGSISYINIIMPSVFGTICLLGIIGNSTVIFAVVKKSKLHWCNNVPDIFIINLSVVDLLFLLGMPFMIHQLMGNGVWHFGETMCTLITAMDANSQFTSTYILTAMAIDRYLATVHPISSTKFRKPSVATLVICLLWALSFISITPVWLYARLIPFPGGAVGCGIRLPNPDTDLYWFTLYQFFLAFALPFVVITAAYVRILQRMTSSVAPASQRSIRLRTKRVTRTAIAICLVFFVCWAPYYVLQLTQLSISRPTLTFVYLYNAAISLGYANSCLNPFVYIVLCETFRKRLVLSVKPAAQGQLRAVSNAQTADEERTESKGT

As for `O=C(NCC(CCNC1CCCC1)c1ccc(-c2ccc3c(c2)OCO3)cc1)Nc1cc(Cl)cc(Cl)c1` (stereo not shown) [Example 227], the Ki (as a rule, the equilibrium dissociation constant of an inhibitor or competing ligand from its target) was in the range of 51 to 500 nM.

Regarding `COc1cc(-c2ccc(C(CCNC3CCCC3)CNC(=O)Nc3cc(Cl)cc(Cl)c3)cc2)cc(OC)c1OC` (stereo not shown) [Example 228], the Ki was 51 to 500 nM.

For `O=C(NCC(CCNC1CCCC1)c1ccc(-c2ccsc2)cc1)Nc1cc(Cl)cc(Cl)c1` (stereo not shown) [Example 229], the Ki lay in the range of 51 to 500 nM.

For the compound `O=C(NCC(CCNC1CCCC1)c1ccc(-c2cccs2)cc1)Nc1cc(Cl)cc(Cl)c1` (stereo not shown) [Example 230], the Ki lay in the range of 51 to 500 nM.

`CN(C)CCCNCCC(CNC(=O)Nc1cc(Cl)cc(Cl)c1)c1ccc(-c2cccs2)cc1` (stereo not shown) [Example 231]: the Ki was 51 to 500 nM.

For `CN(C)CCCNCCC(CNC(=O)Nc1cc(Cl)cc(Cl)c1)c1ccc(-c2ccccc2Cl)cc1` (stereo not shown) [Example 232], the Ki was 51 to 500 nM.

For `CN(C)CCCNCCC(CNC(=O)Nc1cc(Cl)cc(Cl)c1)c1ccc(-c2ccccc2)cc1` (stereo not shown) [Example 233], the Ki was 51 to 500 nM.

With `CN(C)CCCNCCC(CNC(=O)Nc1cc(Cl)cc(Cl)c1)c1ccc(-c2ccsc2)cc1` (stereo not shown) [Example 235], the Ki lay in the range of 51 to 500 nM.

As for `O=C(NCC(CCNC1CCCC1)c1ccc(-c2cc(Cl)cc(Cl)c2)cc1)Nc1cc(Cl)cc(Cl)c1` (stereo not shown) [Example 236], the Ki lay in the range of 51 to 500 nM.

On to `CN(C)CCCNCCC(CNC(=O)Nc1cc(Cl)cc(Cl)c1)c1ccc(-c2ccc(F)cc2)cc1` (stereo not shown) [Example 237], for which the Ki was in the range of 51 to 500 nM.

For `COc1ccccc1-c1ccc(C(CCNC2CCCC2)CNC(=O)Nc2cc(Cl)cc(Cl)c2)cc1` (stereo not shown) [Example 238], the Ki is 51 to 500 nM.

Take `COc1ccc(-c2ccc(C(CCNCCCN(C)C)CNC(=O)Nc3cc(Cl)cc(Cl)c3)cc2)c(OC)c1` (stereo not shown) [Example 239]: the inhibition constant (Ki) lay in the range of 51 to 500 nM.

For `COc1ccc(-c2ccc(C(CCNCCCN(C)C)CNC(=O)Nc3cc(Cl)cc(Cl)c3)cc2)cc1` (stereo not shown) [Example 240], the Ki lay within 51 to 500 nM.

Consider `COc1ccc(-c2ccc(C(CCNC3CCCC3)CNC(=O)Nc3cc(Cl)cc(Cl)c3)cc2)cc1` (stereo not shown) [Example 241], for which the Ki was in the range of 51 to 500 nM.

Take `O=C(NCC(CCNC1CCCC1)c1ccc(-c2ccc(O)cc2)cc1)Nc1cc(Cl)cc(Cl)c1` (stereo not shown) [Example 242]: the Ki was 51 to 500 nM.

On to `O=C(NCC(CCNC1CCCC1)c1ccc(-c2ccc(F)cc2)cc1)Nc1cc(Cl)cc(Cl)c1` (stereo not shown) [Example 243], for which the Ki was in the range of 51 to 500 nM.

As to `O=C(NCC(CCNC1CCCC1)c1ccc(-c2ccc(Cl)c(Cl)c2)cc1)Nc1cc(Cl)cc(Cl)c1` (stereo not shown) [Example 245], the Ki is 51 to 500 nM.

For the compound `CN(C)CCCNCCC(CNC(=O)Nc1cc(Cl)cc(Cl)c1)c1ccc(-c2ccc(Cl)cc2)cc1` (stereo not shown) [Example 246], the Ki fell in the range of 51 to 500 nM.

Consider `CN(C)CCCNCCC(CNC(=O)Nc1cc(Cl)cc(Cl)c1)c1ccc(-c2ccc(Cl)c(Cl)c2)cc1` (stereo not shown) [Example 247], for which the inhibition constant (Ki) fell in the range of 51 to 500 nM.

As for `O=C(NCC(CCNC1CCCC1)c1ccc(-c2cccc(C(=O)O)c2)cc1)Nc1cc(Cl)cc(Cl)c1` (stereo not shown) [Example 248], the inhibition constant (Ki) is 51 to 500 nM.

As to `Cc1ccc(-c2ccc(C(CCNC3CCCC3)CNC(=O)Nc3cc(Cl)cc(Cl)c3)cc2)cc1` (stereo not shown) [Example 249], the inhibitory constant (Ki) is 51 to 500 nM.

For the compound `O=C(NCC(CCNC1CCCC1)c1ccc(-c2ccc(C(F)(F)F)cc2)cc1)Nc1cc(Cl)cc(Cl)c1` (stereo not shown) [Example 250], the Ki fell in the range of 51 to 500 nM.

`CN(C)CCCNCCC(CNC(=O)Nc1cc(Cl)cc(Cl)c1)c1ccc(-c2ccc(O)cc2)cc1` (stereo not shown) [Example 251]: the inhibition constant Ki fell in the range of 51 to 500 nM.

Regarding `COc1ccccc1-c1ccc(C(CCNCCCN(C)C)CNC(=O)Nc2cc(Cl)cc(Cl)c2)cc1` (stereo not shown) [Example 252], the Ki lay within 51 to 500 nM.

For the compound `O=C(NCC(CCNC1CCCC1)c1ccc(-c2cc(C(F)(F)F)cc(C(F)(F)F)c2)cc1)Nc1cc(Cl)cc(Cl)c1` (stereo not shown) [Example 253], the inhibition constant (Ki) lay within 501 to 2500 nM.

`Cc1ccc(-c2ccc(C(CCNCCCN(C)C)CNC(=O)Nc3cc(Cl)cc(Cl)c3)cc2)cc1` (stereo not shown) [Example 254]: the Ki was 501 to 2500 nM.

Turning to `CN(C)CCCNCCC(CNC(=O)Nc1cc(Cl)cc(Cl)c1)c1ccc(-c2ccc(C(F)(F)F)cc2)cc1` (stereo not shown) [Example 255], the Ki was in the range of 501 to 2500 nM.

As for `CN(C)CCCNCCC(CNC(=O)Nc1cc(Cl)cc(Cl)c1)c1ccc(-c2cc(C(F)(F)F)cc(C(F)(F)F)c2)cc1` (stereo not shown) [Example 256], the Ki lay in the range of 501 to 2500 nM.

With `COc1cc(-c2ccc(C(CCNCCCN(C)C)CNC(=O)Nc3cc(Cl)cc(Cl)c3)cc2)cc(OC)c1OC` (stereo not shown) [Example 257], the Ki was 501 to 2500 nM.

Regarding `O=C(NCc1ccc(F)c(F)c1)NCC(CCN1CCC(N2CCCCC2)CC1)c1ccc(Cl)c(Cl)c1` (stereo not shown) [Example 258], the inhibition constant Ki was 51 to 500 nM.

Consider `COc1cc(CNCCC(CNC(=O)Nc2ccc(Cl)c(Cl)c2)c2ccc(Cl)c(Cl)c2)cc(OC)c1OC` (stereo not shown) [Example 259], for which the Ki lay within 51 to 500 nM.

Consider `CCOC(=O)N1CCC(NCCC(CNC(=O)Nc2ccc(F)c(Cl)c2)c2ccc(Cl)c(Cl)c2)CC1` (stereo not shown) [Example 260], for which the Ki was in the range of 51 to 500 nM.

Turning to `O=C(NCC(CCNCc1ccc2c(c1)OCO2)c1ccc(Cl)c(Cl)c1)Nc1ccc(F)c(Cl)c1` (stereo not shown) [Example 261], the Ki lay within 51 to 500 nM.

For `CCOC(=O)N1CCC(NCCC(CNC(=O)Nc2ccc(F)c(F)c2)c2ccc(Cl)c(Cl)c2)CC1` (stereo not shown) [Example 262], the Ki was in the range of 51 to 500 nM.

With `O=C(NCC(CCNC1CCC1)c1ccc(Cl)c(Cl)c1)Nc1ccc(F)c(Cl)c1` (stereo not shown) [Example 263], the inhibition constant Ki was in the range of 501 to 2500 nM.

In the case of `CCOC(=O)N1CCC(NCCC(CNC(=O)Nc2ccc(F)c([N+](=O)[O-])c2)c2ccc(Cl)c(Cl)c2)CC1` (stereo not shown) [Example 264], the Ki was 501 to 2500 nM.

Turning to `O=C(NCC(CCNC1CCC1)c1ccc(Cl)c(Cl)c1)Nc1ccc(F)c(F)c1` (stereo not shown) [Example 265], the Ki was in the range of 501 to 2500 nM.

Take `O=C(NCC(CCNC1CCCCC1)c1ccc(Cl)cc1)Nc1cc(Cl)cc(Cl)c1` (stereo not shown) [Example 266]: the Ki is 51 to 500 nM.

For the compound `O=C(NCC(CCNC1CCCC1)c1ccc(Cl)cc1)Nc1cc(Cl)cc(Cl)c1` (stereo not shown) [Example 267], the Ki is 51 to 500 nM.

In the case of `Cc1ccc(C(CCNC2CCCCC2)CNC(=O)Nc2cc(Cl)cc(Cl)c2)cc1` (stereo not shown) [Example 268], the Ki was 51 to 500 nM.

For `Cc1ccc(C(CCNC2CCCC2)CNC(=O)Nc2cc(C(F)(F)F)cc(C(F)(F)F)c2)cc1` (stereo not shown) [Example 269], the Ki is 51 to 500 nM.

As to `Cc1ccc(C(CCNC2CCCCC2)CNC(=O)Nc2cc(C(F)(F)F)cc(C(F)(F)F)c2)cc1` (stereo not shown) [Example 270], the inhibition constant (Ki) was 51 to 500 nM.

Regarding `Cc1ccc(C(CCNC2CCCC2)CNC(=O)Nc2cc(Cl)cc(Cl)c2)cc1` (stereo not shown) [Example 271], the Ki is 51 to 500 nM.

On to `Cc1ccc(C(CCNC2CCC2)CNC(=O)Nc2cc(Cl)cc(Cl)c2)cc1` (stereo not shown) [Example 272], for which the Ki is 51 to 500 nM.

On to `O=C(NCC(CCNC1CCC1)c1ccc(Cl)cc1)Nc1cc(Cl)cc(Cl)c1` (stereo not shown) [Example 273], for which the Ki was 51 to 500 nM.

With `Cc1ccc(C(CCNC2CCC2)CNC(=O)Nc2cc(C(F)(F)F)cc(C(F)(F)F)c2)cc1` (stereo not shown) [Example 274], the Ki lay in the range of 51 to 500 nM.

`Cc1ccc(C(CCNc2c(C)noc2C)CNC(=O)Nc2cc(Cl)cc(Cl)c2)cc1` (stereo not shown) [Example 275]: the Ki is 501 to 2500 nM.

On to `CCOC(=O)N1CCC(NCCC(CNC(=O)Nc2cc(Cl)cc(Cl)c2)c2ccc(Cl)c(Cl)c2)CC1` (stereo not shown) [Example 277], for which the Ki fell in the range of 51 to 500 nM.

On to `O=C(NCC(CCNCCc1ccc(O)cc1)c1ccc(Cl)c(Cl)c1)Nc1ccc(Cl)c(Cl)c1` (stereo not shown) [Example 278], for which the Ki fell in the range of 51 to 500 nM.

In the case of `O=C(NCC(CCNC1CCCC1)c1ccc(Cl)c(Cl)c1)Nc1ccc(Cl)c(Cl)c1` (stereo not shown) [Example 279], the Ki lay within 51 to 500 nM.

On to `O=C(NCC(CCNC1CCCC1)c1ccc(Cl)c(Cl)c1)Nc1cc(Cl)cc(Cl)c1` (stereo not shown) [Example 280], for which the Ki is 51 to 500 nM.

Regarding `CCOC(=O)N1CCC(NCCC(CNC(=O)Nc2cccc(C(F)(F)F)c2)c2ccc(Cl)c(Cl)c2)CC1` (stereo not shown) [Example 281], the Ki lay within 51 to 500 nM.

Take `O=C(NCC(CCNC1CCC1)c1ccc(Cl)c(Cl)c1)Nc1ccc(Cl)c(Cl)c1` (stereo not shown) [Example 282]: the Ki lay in the range of 51 to 500 nM.

In the case of `O=C(NCC(CCNC1CCC1)c1ccc(Cl)c(Cl)c1)Nc1cccc(C(F)(F)F)c1` (stereo not shown) [Example 283], the inhibitory constant (Ki) was 51 to 500 nM.

With `Cn1cnc(CCNCCC(CNC(=O)Nc2ccc(Cl)c(Cl)c2)c2ccc(Cl)c(Cl)c2)c1` (stereo not shown) [Example 284], the Ki fell in the range of 51 to 500 nM.

For the compound `O=C(NCC(CCN1CCC(N2CCCCC2)CC1)c1ccc(Cl)c(Cl)c1)Nc1ccc([N+](=O)[O-])c(Cl)c1` (stereo not shown) [Example 286], the inhibition constant Ki fell in the range of 51 to 500 nM.

For the compound `O=C(NCC(CCN1CCCC1)c1ccc(Cl)c(Cl)c1)Nc1ccc(Cl)c(Cl)c1` (stereo not shown) [Example 287], the Ki lay in the range of 51 to 500 nM.

As for `CCCN(CC)CCC(CNC(=O)Nc1cccc(C(F)(F)F)c1)c1ccc(Cl)c(Cl)c1` (stereo not shown) [Example 288], the Ki was 51 to 500 nM.

Regarding `CCCN(CC)CCC(CNC(=O)Nc1ccc(Cl)c(Cl)c1)c1ccc(Cl)c(Cl)c1` (stereo not shown) [Example 289], the Ki lay in the range of 51 to 500 nM.

Take `O=C(NCC(CCNC1CCCC1)c1ccc(Cl)c(Cl)c1)Nc1cccc(C(F)(F)F)c1` (stereo not shown) [Example 290]: the Ki lay within 51 to 500 nM.

With `CN(C)C1CCN(CCC(CNC(=O)Nc2ccc(Cl)c(Cl)c2)c2ccc(Cl)c(Cl)c2)C1` (stereo not shown) [Example 291], the Ki was 51 to 500 nM.

`CN(C)C1CCN(CCC(CNC(=O)Nc2cc(Cl)cc(Cl)c2)c2ccc(Cl)c(Cl)c2)C1` (stereo not shown) [Example 292]: the Ki is 51 to 500 nM.

`O=C(NCC(CCNCCc1ccc(O)cc1)c1ccc(Cl)c(Cl)c1)Nc1cccc(C(F)(F)F)c1` (stereo not shown) [Example 293]: the Ki fell in the range of 51 to 500 nM.

For the compound `O=C(NCC(CCNCCc1c[nH]c2ccccc12)c1ccc(Cl)c(Cl)c1)Nc1cc(Cl)cc(Cl)c1` (stereo not shown) [Example 294], the Ki fell in the range of 501 to 2500 nM.

As to `O=C(NCC(CCNCc1ccc2c(c1)OCO2)c1ccc(Cl)c(Cl)c1)Nc1cc(Cl)cc(Cl)c1` (stereo not shown) [Example 295], the Ki lay within 501 to 2500 nM.

For the compound `O=C(NCC(CCNCc1ccc2c(c1)OCO2)c1ccc(Cl)c(Cl)c1)Nc1ccc(Cl)c(Cl)c1` (stereo not shown) [Example 296], the Ki lay in the range of 501 to 2500 nM.

Consider `Cn1cnc(CCNCCC(CNC(=O)Nc2cc(Cl)cc(Cl)c2)c2ccc(Cl)c(Cl)c2)c1` (stereo not shown) [Example 297], for which the Ki fell in the range of 501 to 2500 nM.
